Reference: patent US12630501B2, “Anti-fibrotic compounds and use thereof” (HADASIT MEDICAL RESEARCH SERVICES AND DEVELOPMENT LTD., priority 2019, dated 2026)

Key:
IPF-lung myofibroblasts = assay: Anti-Fas mAb-mediated cell death of IPF-lung myofibroblasts (trypan blue, caspase-3 cleavage); assay type: cell-based, human
Procedure: Cell death and apoptosis Apoptosis was assessed with Annexin V affinity labeling, trypan blue exclusion, and caspase-3 cleavage in WB as described in Golan-Gerstl et al., Am. J. Respir. Cell Mol. Biol. 36: 270-275, 2007; Wallach-Dayan et al., PNAS USA 104: 20460-20465, 2007; and Wallach-Dayan et al., Am. J. Physiol. Lung Cell Mol. Physiol. 290: L790-L796, 2006.
Caspase-8 activation further targets effector caspase-3 and caspase-7, a parallel […] pathway, caspases 6 and 9, MAPKs, and Bim phosphorylations with binding cascades to Bax, Apaf-1, and caspase-9, allowing Bax-mediated cell death to be detected as well. Concomitantly, inhibitors of these processes, including FLIP, show negative interaction with FADD and with the inhibitors of apoptotic proteins (IAPs). […] In addition, CMH increased CH-11 anti-human Fas mAb-mediated IPF-myofibroblast cell death (24 h, 10 μM) above that produced by treatment with the vehicle alone (4% DMSO), as shown by microscope images (FIG. 5A) and trypan blue exclusion (FIG. 5A, quantification in inserts, and FIG. 5B, graphical representation), with 0.9-1×10^5 viable cells in control compared to only 0.3×10^5 cells following CMH. In fact, CMH-treated cells were 10 times more likely to undergo Fas-induced apoptosis (2.8 compared to 0.3), as determined by the OD of cleaved to uncleaved caspase-3 ratios (FIG. 5C). CMH therefore amplifies Fas signaling cascades above those induced by Fas alone. Thus, multiple intracellular anti-apoptotic signaling pathways mediated by SIRT1 and Ku70 were altered by CMH in vitro, which further enhanced Fas-apoptosis cascades.

Ku70 = assay: Ku70-IP and immunoblots of myofibroblasts isolated from lungs of BLM-treated mice given CMH; assay type: in vivo, mouse; details: CMH 30 μM OA day 6, sacrifice day 14
Procedure: Oropharyngeal aspiration (OA) and induction of lung fibrosis in mice Oropharyngeal aspiration of BLM (OA-BLM) was performed as detailed in Golan-Gerstl et al., Am. J. Respir. Cell Mol. Biol. 36: 270-275, 2007. Lung fibrosis was assessed via semi-quantitative morphological index (Wallach-Dayan et al., PNAS USA 104: 20460-20465, 2007). Lung collagen was measured using a Sircol Collagen Assay kit (Biocolor, Belfast, Northern Ireland), and standard protocol of trichrome staining. Isolation of mouse lung myofibroblasts Myofibroblast isolation and culture was performed as described in Golan-Gerstl et al., Am. J. Respir. Cell Mol. Biol. 36: 270-275, 2007; and Wallach-Dayan et al., PNAS USA 104: 20460-20465, 2007.
Immunoprecipitation and immunoblotting Standard protocols were performed as described in Golan-Gerstl et al., Am. J. Respir. Cell Mol. Biol. 47: 271-279, 2012.
CMH (30 μM) or control vehicle 4% DMSO were administered into WT mice by a second OA on day 6 of OA-BLM (0.05 mU), or control-saline (FIG. 6A). Similar to SIRT1^y/y mice, BLM-treated mice and control saline-treated mice (FIG. 6B) that were exposed to CMH vs. vehicle alone, had low SIRT1 and FLIP expression in lung sections. Myofibroblasts isolated from lungs of BLM-treated mice had decreased Ku70 binding to SIRT1 from 1.2 to 0.6 (FIG. 6C), increased Ku70 acetylation from an OD of 0.1 to 0.91 (FIG. 6D), and decreased Ku70/FLIP complex from an OD of 2.43 to 1.55 (FIG. 6E). Compared to vehicle, CMH-treated mice reduced H&E and collagen-trichrome staining (FIG. 6F, upper and lower panels, respectively), SMI grade (average SMI from 2 to 1.1, FIG. 6G), and collagen in Sircol assay (from 200 μg to only 50 μg, FIG. 6H). Thus, In vivo inhibition of SIRT1 activity, FLIP expression, and lung fibrosis were detected in CMH-BLM-treated mice and attenuation of deacetylation activity on Ku70, a decrease in Ku70/FLIP complex, and FLIP expression levels were detected in myofibroblasts isolated from lungs of CMH-BLM-treated mice. […]

[1] = system: IPF myofibroblasts of CCL-191 line; assay: Expression of specific genes in IPF myofibroblasts incubated with CMH (Table 1); assay type: cell-based, human; details: CCL-191 incubated with CMH; 2-^ΔΔCt, mean±standard error
Procedure: Table 1 below indicates the expression of specific genes in IPF myofibroblasts of CCL-191 line incubated with CMH and the vehicle, correspondingly, calculated by 2-^ΔΔCt the data is represented as mean±standard error).

HDAC9 = HDAC9 (Homo sapiens, UniProt Q9UKV0); details: prostate cancer cells; cited from earlier work
Sequence of HDAC9 (Q9UKV0 whole entry, species assumed): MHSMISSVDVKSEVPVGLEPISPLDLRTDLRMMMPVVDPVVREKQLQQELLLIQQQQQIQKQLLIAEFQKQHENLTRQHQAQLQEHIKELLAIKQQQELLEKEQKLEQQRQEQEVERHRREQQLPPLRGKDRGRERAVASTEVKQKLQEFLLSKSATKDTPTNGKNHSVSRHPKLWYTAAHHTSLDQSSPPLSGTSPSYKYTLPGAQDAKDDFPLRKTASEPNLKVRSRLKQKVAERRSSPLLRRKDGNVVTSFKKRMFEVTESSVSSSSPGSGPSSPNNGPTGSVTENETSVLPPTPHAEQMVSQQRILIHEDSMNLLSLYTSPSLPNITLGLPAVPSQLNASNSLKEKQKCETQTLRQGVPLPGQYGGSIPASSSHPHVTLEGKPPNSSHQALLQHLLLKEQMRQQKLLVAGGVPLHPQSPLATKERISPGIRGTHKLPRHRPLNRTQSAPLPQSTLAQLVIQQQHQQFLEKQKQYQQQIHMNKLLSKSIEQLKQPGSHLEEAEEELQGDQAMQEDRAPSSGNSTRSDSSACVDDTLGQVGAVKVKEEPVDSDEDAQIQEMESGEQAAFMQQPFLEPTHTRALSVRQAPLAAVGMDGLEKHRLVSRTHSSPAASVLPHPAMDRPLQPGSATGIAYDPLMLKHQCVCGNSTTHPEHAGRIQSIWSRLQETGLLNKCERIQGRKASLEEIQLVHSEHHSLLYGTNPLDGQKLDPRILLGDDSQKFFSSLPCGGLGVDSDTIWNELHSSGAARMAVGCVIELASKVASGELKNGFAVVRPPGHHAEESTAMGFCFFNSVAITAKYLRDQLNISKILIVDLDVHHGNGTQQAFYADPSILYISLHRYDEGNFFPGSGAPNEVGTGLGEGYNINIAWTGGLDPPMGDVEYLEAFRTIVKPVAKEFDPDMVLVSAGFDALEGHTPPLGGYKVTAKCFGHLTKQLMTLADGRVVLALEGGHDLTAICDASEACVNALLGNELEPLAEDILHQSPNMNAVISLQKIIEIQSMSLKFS

HDAC2 = HDAC2 (Homo sapiens, UniProt Q92769); details: prostate cancer cells; cited from earlier work
Sequence of HDAC2 (Q92769 whole entry, species assumed): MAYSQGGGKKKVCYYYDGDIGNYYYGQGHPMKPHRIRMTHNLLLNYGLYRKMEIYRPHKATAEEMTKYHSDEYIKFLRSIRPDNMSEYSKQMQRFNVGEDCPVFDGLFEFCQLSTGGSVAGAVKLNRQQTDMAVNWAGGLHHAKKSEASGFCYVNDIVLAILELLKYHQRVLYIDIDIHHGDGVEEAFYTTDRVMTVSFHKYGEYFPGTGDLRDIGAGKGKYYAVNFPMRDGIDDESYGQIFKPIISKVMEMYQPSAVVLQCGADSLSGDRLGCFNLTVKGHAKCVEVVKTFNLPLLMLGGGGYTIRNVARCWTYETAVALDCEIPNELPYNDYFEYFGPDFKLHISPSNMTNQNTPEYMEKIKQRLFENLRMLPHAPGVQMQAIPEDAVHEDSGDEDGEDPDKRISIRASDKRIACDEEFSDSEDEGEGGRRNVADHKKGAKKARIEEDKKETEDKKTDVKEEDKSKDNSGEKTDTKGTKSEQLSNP

Structure (SMILES): Cc1cc(Cl)ccc1OCCCC(=O)NO [CMH, 4-(4-chloro-2-methylphenoxy)-N-hydroxybutanamide]
- Viable cells, trypan blue exclusion (IPF-lung myofibroblasts; CMH plus CH-11 anti-human Fas mAb (24 h, 10 μM), control 0.9-1×10^5): 0.3×10^5 cells
- OD of cleaved to uncleaved caspase-3 ratio (IPF-lung myofibroblasts; CMH plus anti-Fas mAb, vehicle 0.3): 2.8
- Likelihood to undergo Fas-induced apoptosis vs. vehicle (IPF-lung myofibroblasts; from cleaved to uncleaved caspase-3 ratios): 10 times
- Ku70 acetylation OD (Ku70-IP, pan-acetyl IB) (Ku70; from 0.1): 0.91 OD
- Ku70 binding to SIRT1 (Ku70-IP, SIRT1 IB) (Ku70; from 1.2): 0.6
- Ku70/FLIP complex OD (Ku70-IP, FLIP IB) (Ku70; from 2.43): 1.55 OD
- AIFM1 expression, M ± m [1]: 12.3 ± 2.89
- BAX expression, M ± m [1]: 319.29 ± 78.06
- BCL2L10 expression, M ± m [1]: 0.13 ± 0.05
- BCL2L11 expression, M ± m [1]: 0.58 ± 0.09
- CASP8 expression, M ± m [1]: 7.13 ± 4.18
- CASP9 expression, M ± m [1]: 9.57 ± 6.69
- CFLAR expression, M ± m [1]: 3.5 ± 1.42
- CFLAR-AS1 expression, M ± m [1]: 0.11 ± 0.04
- DIABLO expression, M ± m [1]: 13.48 ± 3.27
- E2F1 expression, M ± m [1]: 0.39 ± 0.21
- HIC1 expression, M ± m [1]: 0.68 ± 0.44
- MCL1 expression, M ± m [1]: 67.57 ± 34.04
- PPP1R13B expression, M ± m [1]: 0.1 ± 0.05
- PRKCD expression, M ± m [1]: 9 ± 4
- PRKCDBP expression, M ± m [1]: 21.87 ± 9.21
- SIRT1 expression, M ± m [1]: 0.48 ± 0.04
- TP53AIP1 expression, M ± m [1]: 1.11 ± 0.2
- TP53INP2 expression, M ± m [1]: 8.16 ± 0.54
- TP53 expression, M ± m [1]: 1.8 ± 1.19
- XRCC6 expression, M ± m [1]: 84.85 ± 22.88
- Inhibition of HDAC9 (HDAC9): not inhibited
- Inhibition of HDAC2 (HDAC2): not inhibited
